# From ChEMBL document CHEMBL1201862, “PubChem BioAssay data set” (2004)
# Activity calls are given as the source filed them.
# Experiments:
# [1] = molecular target: Intestinal-type alkaline phosphatase (Homo sapiens, UniProt P09923); assay: activation of human intestinal alkaline phosphatase – biochemical, dose response (AID 488873); format: functional
# [2] = molecular target: Intestinal-type alkaline phosphatase (Mus musculus, UniProt P24822); assay: mouse intestinal alkaline phosphatase activators, dose response, biochemical, luminescence, uHTS hits (AID 488783); format: functional
# Sequence of Intestinal-type alkaline phosphatase (Mus musculus, UniProt P24822) (P24822 whole entry): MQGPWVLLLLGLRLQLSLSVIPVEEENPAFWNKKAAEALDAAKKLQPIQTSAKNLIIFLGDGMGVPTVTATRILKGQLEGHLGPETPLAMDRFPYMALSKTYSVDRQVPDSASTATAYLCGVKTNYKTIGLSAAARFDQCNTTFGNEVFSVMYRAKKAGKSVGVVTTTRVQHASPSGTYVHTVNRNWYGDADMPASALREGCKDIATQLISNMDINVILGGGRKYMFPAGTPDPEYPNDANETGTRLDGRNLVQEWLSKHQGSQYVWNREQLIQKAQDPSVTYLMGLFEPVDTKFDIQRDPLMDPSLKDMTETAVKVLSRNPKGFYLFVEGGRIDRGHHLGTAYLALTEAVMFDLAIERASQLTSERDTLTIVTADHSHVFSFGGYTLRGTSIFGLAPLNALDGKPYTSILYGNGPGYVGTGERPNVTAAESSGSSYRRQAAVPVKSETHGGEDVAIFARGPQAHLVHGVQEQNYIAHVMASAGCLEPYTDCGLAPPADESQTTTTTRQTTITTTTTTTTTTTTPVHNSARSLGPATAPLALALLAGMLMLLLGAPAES
# [3] = molecular target: T1, Alkaline phosphatase, tissue-nonspecific isozyme (Homo sapiens, UniProt P05186); assay: TNAP enzyme activators, dose response, selectivity assay for mouse IAP activator project, biochemical, TNAP isozyme, mouse IAP uHTS hits (AID 488880); format: functional
# T1 sequence (P05186 whole entry): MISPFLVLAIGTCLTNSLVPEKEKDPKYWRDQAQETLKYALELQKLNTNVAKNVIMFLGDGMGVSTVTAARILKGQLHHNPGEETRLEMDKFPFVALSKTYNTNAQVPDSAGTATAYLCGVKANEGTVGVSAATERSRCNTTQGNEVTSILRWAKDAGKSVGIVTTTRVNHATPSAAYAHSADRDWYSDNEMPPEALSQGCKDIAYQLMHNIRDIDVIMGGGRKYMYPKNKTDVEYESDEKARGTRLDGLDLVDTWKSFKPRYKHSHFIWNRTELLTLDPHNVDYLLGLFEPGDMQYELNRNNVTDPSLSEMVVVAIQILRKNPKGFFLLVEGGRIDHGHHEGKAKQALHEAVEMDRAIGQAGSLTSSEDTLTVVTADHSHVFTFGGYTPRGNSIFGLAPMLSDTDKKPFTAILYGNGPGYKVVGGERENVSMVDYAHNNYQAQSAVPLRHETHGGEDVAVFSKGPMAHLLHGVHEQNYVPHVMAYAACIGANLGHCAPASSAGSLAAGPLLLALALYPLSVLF
# [4] = molecular target: T2, G-protein coupled receptor 55 (Homo sapiens, UniProt Q9Y2T6); assay: GPR55 antagonists blocking LPI-driven arrestin recruitment, primary screen, imaging, U2OS, beta-arrestin-GFP, LPI agonist (AID 2013); format: functional;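 note: antagonist potency measured as reduced agonist-driven arrestin aggregation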
# T2 sequence (Q9Y2T6 whole entry): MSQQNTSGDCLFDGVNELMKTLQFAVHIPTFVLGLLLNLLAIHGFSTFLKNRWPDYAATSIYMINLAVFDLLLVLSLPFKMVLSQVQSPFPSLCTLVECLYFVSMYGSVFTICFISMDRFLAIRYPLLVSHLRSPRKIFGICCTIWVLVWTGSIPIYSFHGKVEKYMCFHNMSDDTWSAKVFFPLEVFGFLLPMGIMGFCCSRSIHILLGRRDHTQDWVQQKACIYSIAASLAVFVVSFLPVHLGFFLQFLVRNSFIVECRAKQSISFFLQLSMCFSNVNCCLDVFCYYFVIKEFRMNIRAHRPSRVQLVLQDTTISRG
# Cannabinoid receptor 1 [5] = molecular target: T3, Cannabinoid receptor 1 (Homo sapiens, UniProt P21554); assay: SAR analysis of antagonists of the Cannabinoid Receptor 1 using an Image-Based Assay - Set 2. [Related pubchem assays (depositor defined):AID2013, AID2026]; format: functional
# T3 sequence (P21554 whole entry): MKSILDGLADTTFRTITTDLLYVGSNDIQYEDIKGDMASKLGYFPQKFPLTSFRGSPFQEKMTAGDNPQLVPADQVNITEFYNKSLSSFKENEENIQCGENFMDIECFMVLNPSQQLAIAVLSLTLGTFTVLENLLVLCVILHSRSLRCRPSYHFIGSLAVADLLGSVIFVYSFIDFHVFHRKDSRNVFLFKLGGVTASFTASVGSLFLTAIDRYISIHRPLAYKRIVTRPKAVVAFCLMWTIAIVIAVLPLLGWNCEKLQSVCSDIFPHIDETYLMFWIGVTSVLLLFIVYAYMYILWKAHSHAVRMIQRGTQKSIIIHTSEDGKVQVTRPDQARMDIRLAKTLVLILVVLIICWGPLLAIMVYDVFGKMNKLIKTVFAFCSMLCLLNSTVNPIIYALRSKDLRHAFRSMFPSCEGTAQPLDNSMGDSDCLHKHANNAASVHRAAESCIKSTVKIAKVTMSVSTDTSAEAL
# [6] = molecular target: T4, G-protein coupled receptor 35 (Homo sapiens, UniProt Q9HC97); assay: SAR analysis of Agonists of the GPR35 Receptor using an Image-Based Assay - Set 2. [Related pubchem assays (depositor defined):AID2013, AID2026]; format: functional
# T4 sequence (Q9HC97 whole entry): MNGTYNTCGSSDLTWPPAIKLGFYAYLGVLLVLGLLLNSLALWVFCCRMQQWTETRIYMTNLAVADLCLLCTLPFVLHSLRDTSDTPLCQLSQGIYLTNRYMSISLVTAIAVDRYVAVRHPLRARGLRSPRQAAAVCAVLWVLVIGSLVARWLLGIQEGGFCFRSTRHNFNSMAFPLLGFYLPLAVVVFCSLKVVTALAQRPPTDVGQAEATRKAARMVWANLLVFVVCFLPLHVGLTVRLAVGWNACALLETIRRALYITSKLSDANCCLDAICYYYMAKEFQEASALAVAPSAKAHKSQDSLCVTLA
# Cannabinoid receptor 2 [7] = molecular target: T5, Cannabinoid receptor 2 (Homo sapiens, UniProt P34972); assay: SAR analysis of antagonists of the Cannabinoid Receptor 2 using an Image-Based Assay. [Related pubchem assays (depositor defined):AID2013, AID2026]; format: functional
# T5 sequence (P34972 whole entry): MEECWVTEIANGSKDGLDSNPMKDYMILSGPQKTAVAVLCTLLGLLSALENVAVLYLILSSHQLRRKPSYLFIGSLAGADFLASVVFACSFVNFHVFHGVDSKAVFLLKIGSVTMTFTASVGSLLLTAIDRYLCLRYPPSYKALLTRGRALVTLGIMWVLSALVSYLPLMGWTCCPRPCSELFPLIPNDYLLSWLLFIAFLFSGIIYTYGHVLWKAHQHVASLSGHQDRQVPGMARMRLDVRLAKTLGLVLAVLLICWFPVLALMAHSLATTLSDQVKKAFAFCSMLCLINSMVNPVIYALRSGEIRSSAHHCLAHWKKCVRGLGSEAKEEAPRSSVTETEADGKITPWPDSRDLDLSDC
# Cannabinoid receptor 1 [8] = molecular target: T3, Cannabinoid receptor 1; assay: SAR analysis of agonists of the Cannabinoid Receptor 1 using an Image-Based Assay - Set 2. [Related pubchem assays (depositor defined):AID2013, AID2026]; format: functional
# [9] = molecular target: T4, G-protein coupled receptor 35; assay: SAR analysis of Antagonists of the GPR35 Receptor using an Image-Based Assay - Set 3. [Related pubchem assays (depositor defined):AID2013, AID2026]; format: functional
# [10] = molecular target: T2, G-protein coupled receptor 55; assay: GPR55 antagonist potency of analogs, SAR follow-up, imaging, U2OS, beta-arrestin-GFP, LPI agonist, set 2 (AID 2820); format: functional
# Cannabinoid receptor 1 [11] = molecular target: T3, Cannabinoid receptor 1; assay: SAR analysis of antagonists of the Cannabinoid Receptor 1 using an Image-Based Assay - Set 4. [Related pubchem assays (depositor defined):AID2013, AID2026]; format: functional
# [12] = molecular target: T2, G-protein coupled receptor 55; assay: SAR Analysis of Selective Antagonists of GPR55 using an Image-Based Assay - Set 4. [Related pubchem assays (depositor defined):AID2013, AID2026]; format: functional
# Cannabinoid receptor 2 [13] = molecular target: T5, Cannabinoid receptor 2; assay: SAR analysis of antagonists of the Cannabinoid Receptor 2 using an Image-Based Assay - Set 3. [Related pubchem assays (depositor defined):AID2013, AID2026]; format: functional
# Cannabinoid receptor 2 [14] = molecular target: T5, Cannabinoid receptor 2; assay: SAR analysis of agonists of the Cannabinoid Receptor 2 using an Image-Based Assay. [Related pubchem assays (depositor defined):AID2013, AID2026]; format: functional
# Cannabinoid receptor 2 [15] = molecular target: T5, Cannabinoid receptor 2; assay: SAR analysis of agonists of the Cannabinoid Receptor 2 using an Image-Based Assay - Set 3. [Related pubchem assays (depositor defined):AID2013, AID2026]; format: functional
# INS1 = assay: beta cell apoptosis inhibitors, cytokine rescue, dose response, luminescence, retest (AID 449756); format: functional, cell-based; settings: Rattus norvegicus;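 note: cell death triggered by IL-1 beta plus TNF-alpha plus IFN-gamma mixture; protective hits raise ATP signal compared with cytokine alone wells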
# [16] = Shn3 3'UTR reporter inhibitors, dose response, cell-based, Clone20 osteoblasts, firefly luciferase, cherry-picked (AID 624132); format: functional;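 note: firefly luciferase luminescence from reporter carrying the Shn3 3'UTR in osteoblasts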
# [17] = HepG2 cell cytotoxicity, dose response, cytotoxicity control for Shn3 inhibitor project, CellTiter-Glo, cherry-picked (AID 624134); format: functional, cell-based
# [18] = control 3'UTR Renilla luciferase suppression, dose response, counter-screen for Shn3 inhibitor project, cell-based, Clone20-Shn3RL, cherry-picked (AID 624133); format: functional
# SUMO-activating enzyme = SUMO-activating enzyme (Homo sapiens, UniProt Q9UBT2); assay: SUMOylation inhibitor hit validation, confirmation, SUMOylation inhibitor project, biochemical, AlphaScreen (AID 2018); format: functional
# Sequence of SUMO-activating enzyme (Q9UBE0 whole entry): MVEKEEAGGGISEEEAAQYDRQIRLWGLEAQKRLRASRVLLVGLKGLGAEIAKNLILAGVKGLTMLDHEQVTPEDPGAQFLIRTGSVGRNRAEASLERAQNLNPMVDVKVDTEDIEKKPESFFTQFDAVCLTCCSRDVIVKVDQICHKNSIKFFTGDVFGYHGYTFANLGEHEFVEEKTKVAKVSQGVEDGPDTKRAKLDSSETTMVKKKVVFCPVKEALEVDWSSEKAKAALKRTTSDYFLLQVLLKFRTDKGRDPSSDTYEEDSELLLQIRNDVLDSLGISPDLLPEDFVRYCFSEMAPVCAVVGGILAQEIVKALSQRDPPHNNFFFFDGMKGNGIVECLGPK
# Sequence of SUMO-activating enzyme (Q9UBT2 whole entry): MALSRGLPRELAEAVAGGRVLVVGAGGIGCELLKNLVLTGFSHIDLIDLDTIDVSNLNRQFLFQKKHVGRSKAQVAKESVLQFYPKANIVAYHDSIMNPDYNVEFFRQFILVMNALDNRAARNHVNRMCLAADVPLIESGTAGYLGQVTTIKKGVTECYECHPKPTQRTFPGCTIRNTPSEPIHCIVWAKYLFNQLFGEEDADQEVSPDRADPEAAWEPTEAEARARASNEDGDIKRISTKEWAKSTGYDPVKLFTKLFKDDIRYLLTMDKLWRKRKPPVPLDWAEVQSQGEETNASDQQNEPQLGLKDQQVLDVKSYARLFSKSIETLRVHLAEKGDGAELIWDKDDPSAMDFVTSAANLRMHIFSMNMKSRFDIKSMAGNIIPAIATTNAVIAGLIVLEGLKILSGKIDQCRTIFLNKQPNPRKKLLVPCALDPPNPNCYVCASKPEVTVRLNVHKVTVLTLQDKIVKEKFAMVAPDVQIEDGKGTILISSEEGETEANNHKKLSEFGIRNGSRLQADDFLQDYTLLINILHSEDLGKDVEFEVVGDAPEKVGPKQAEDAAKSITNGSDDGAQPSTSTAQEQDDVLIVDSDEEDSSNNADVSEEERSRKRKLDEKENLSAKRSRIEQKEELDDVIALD
# Exodeoxyribonuclease V = molecular target: T6, Exodeoxyribonuclease V (Escherichia coli (strain K12), UniProt P04993+P07648+P08394); assay: E. coli RecBCD inhibitors, dose response, counter-screen for AddAB inhibitor project, absorbance, V66 E. coli, mutant T4 phage (AID 492957); format: functional, cell-based, Escherichia coli str. K-12 substr. MG1655
# T6 sequence (P04993 whole entry): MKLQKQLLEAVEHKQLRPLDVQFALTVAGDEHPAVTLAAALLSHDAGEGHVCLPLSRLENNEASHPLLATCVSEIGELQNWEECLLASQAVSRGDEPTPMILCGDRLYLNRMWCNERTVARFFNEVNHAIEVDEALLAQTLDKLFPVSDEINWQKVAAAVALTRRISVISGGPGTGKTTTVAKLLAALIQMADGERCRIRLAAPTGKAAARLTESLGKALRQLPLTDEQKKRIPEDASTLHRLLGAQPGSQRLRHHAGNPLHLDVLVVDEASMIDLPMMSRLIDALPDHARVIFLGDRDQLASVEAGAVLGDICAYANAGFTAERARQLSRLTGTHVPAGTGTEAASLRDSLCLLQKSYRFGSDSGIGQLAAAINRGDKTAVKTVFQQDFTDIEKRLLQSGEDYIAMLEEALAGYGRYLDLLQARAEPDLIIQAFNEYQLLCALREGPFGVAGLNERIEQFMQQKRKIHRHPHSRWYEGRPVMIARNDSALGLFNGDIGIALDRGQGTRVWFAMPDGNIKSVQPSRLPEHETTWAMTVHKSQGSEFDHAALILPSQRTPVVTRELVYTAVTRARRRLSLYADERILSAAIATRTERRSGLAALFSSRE
# T6 sequence (P07648 whole entry): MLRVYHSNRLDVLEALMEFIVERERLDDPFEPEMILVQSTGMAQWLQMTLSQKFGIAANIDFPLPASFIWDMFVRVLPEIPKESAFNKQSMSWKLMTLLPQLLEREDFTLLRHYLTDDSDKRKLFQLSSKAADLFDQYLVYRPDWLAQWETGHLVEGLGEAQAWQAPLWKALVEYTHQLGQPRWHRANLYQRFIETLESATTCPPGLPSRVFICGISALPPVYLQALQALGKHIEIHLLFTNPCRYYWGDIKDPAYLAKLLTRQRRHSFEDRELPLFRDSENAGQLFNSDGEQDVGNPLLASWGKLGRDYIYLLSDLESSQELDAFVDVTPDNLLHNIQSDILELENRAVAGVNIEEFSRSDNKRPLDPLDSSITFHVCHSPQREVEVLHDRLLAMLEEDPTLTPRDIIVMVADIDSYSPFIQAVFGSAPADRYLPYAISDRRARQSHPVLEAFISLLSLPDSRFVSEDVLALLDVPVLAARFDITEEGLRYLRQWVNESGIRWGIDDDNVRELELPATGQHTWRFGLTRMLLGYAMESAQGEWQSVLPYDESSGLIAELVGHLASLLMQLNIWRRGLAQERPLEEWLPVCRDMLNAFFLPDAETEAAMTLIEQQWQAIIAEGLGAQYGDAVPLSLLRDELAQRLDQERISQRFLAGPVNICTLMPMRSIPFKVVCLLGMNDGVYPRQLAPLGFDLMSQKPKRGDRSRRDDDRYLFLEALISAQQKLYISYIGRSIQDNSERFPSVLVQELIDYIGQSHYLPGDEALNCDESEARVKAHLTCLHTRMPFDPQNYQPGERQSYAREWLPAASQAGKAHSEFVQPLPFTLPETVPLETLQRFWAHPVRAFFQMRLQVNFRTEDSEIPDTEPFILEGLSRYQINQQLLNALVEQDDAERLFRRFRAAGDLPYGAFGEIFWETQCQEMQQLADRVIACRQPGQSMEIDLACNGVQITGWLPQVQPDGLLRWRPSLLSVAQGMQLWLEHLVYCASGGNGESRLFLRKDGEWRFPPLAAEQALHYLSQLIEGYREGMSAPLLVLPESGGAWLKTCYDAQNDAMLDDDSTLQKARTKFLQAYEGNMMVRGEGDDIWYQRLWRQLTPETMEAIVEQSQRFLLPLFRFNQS
# T6 sequence (P08394 whole entry): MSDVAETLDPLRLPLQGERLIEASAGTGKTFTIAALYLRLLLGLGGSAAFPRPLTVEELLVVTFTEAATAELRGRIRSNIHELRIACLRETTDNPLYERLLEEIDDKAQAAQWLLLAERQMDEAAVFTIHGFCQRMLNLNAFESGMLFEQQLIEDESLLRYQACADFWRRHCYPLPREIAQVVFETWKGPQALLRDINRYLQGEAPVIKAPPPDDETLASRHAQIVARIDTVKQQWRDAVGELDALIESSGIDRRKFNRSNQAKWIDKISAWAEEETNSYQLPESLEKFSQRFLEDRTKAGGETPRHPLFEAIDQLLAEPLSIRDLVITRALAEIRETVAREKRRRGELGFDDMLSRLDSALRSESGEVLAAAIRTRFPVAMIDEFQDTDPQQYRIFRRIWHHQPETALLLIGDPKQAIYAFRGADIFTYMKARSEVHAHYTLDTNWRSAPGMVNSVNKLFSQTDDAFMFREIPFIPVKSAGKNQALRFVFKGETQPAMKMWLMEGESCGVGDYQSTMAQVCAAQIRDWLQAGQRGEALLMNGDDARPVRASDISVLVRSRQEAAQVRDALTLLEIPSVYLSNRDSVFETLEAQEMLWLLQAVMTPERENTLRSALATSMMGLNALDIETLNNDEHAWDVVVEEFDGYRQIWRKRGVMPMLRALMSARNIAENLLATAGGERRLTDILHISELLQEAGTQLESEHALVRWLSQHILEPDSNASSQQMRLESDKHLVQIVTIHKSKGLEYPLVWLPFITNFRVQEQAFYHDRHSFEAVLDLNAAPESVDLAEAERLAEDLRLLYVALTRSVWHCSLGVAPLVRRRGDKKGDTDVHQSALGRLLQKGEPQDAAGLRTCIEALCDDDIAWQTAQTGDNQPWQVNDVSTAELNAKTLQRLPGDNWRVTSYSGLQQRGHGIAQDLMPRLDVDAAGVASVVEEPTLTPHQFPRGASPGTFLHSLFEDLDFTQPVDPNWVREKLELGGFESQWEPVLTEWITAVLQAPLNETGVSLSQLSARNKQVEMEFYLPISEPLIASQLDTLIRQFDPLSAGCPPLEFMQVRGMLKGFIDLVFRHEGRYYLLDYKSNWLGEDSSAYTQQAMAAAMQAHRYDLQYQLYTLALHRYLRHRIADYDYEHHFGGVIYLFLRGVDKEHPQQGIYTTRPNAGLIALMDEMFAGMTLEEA
# [19] = Counterscreen for AddAB inhibitors: absorbance-based bacterial cell-based high throughput dose response assay for inhibitors of bacterial viability. [Related pubchem assays (depositor defined):AID435030, AID449728, AID449731, AID488942, AID488955, AID488956]; format: functional
# Albumin = Albumin (Bos taurus, UniProt P02769); assay: Counterscreen for inhibitors of T-cell receptor (TCR)-CD3 interaction: Fluorescence-based biochemical high throughput dose response assay to identify inhibitors of T-cell receptor (TCR)-CD3 interaction using a TAMRA-labeled BSA probe.; format: functional
# Sequence of Albumin (P02769 whole entry, the tested form may be a part): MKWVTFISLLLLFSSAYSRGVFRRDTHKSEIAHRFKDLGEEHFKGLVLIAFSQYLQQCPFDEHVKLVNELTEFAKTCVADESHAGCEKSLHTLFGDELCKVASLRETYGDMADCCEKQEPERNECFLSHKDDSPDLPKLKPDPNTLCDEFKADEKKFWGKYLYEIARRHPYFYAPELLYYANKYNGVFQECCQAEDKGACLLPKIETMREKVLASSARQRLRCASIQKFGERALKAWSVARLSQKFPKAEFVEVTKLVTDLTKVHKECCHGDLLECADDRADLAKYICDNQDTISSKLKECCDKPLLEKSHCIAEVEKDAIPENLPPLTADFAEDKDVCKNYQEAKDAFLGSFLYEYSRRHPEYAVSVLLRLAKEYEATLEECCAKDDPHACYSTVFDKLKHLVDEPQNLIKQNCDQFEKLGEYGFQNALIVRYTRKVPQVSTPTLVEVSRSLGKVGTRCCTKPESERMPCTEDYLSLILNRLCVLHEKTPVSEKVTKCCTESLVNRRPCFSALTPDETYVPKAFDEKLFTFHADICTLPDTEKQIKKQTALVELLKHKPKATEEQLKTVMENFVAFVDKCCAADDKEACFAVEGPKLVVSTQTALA
# [20] = molecular target: T7, E3 ubiquitin-protein ligase XIAP (Homo sapiens, UniProt P98170); assay: SAR analysis of Antagonists of XIAP-Bir3 domain of IAP-family anti-apoptotic proteins. [Related pubchem assays (depositor defined):AID1018, AID1449, AID1513, AID1514, AID1638]
# T7 sequence (P98170 whole entry, the tested form may be a part): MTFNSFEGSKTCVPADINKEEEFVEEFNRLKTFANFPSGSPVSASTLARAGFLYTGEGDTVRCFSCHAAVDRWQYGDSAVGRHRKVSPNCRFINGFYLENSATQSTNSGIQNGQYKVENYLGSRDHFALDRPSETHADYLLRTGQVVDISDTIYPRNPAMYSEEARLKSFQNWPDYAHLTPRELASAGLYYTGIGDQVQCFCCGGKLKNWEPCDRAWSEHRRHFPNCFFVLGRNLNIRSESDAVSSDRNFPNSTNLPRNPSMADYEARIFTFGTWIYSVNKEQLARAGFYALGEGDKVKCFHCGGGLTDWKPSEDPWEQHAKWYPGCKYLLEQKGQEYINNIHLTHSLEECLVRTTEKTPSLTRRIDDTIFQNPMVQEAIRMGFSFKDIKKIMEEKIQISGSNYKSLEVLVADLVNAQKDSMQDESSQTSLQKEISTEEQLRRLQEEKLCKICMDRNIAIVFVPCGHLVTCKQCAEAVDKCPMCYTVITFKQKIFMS
# [21] = molecular target: T7, E3 ubiquitin-protein ligase XIAP; assay: SAR analysis of Antagonists of IAP-family anti-apoptotic proteins. [Related pubchem assays (depositor defined):AID1018, AID1449, AID1513, AID1514, AID1638]
# Sequence of Intestinal-type alkaline phosphatase (Homo sapiens, UniProt P09923) (P09923 whole entry): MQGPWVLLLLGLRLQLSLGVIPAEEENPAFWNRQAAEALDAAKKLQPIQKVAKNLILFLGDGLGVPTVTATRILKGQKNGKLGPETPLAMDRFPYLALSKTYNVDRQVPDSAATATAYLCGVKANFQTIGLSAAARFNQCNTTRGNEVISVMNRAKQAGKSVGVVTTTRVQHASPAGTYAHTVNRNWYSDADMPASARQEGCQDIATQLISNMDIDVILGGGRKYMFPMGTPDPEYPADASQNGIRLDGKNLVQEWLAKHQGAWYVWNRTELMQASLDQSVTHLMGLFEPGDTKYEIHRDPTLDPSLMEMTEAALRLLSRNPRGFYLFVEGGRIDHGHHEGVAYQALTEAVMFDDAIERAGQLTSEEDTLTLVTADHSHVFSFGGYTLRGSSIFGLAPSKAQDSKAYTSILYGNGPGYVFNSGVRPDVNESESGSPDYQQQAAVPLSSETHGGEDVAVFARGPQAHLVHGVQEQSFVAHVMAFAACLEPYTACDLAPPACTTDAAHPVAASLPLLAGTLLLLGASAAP
smiles,measurement,setting,value
Cc1ccc(NS(=O)(=O)c2ccc3nc(O)oc3c2)c(C)c1,EC50,[1],60.3 µM (active)
same,EC50,[2],62.7 µM (active)
same,EC50,[3],58.7 µM (active)
Cc1nc(N2CCN(C(=O)c3ccco3)CC2)c2c3c(sc2n1)CC(C)CC3 (stereo not given),IC50,[4],0.653 µM (active)
same,IC50,Cannabinoid receptor 1 [5],> 32 µM (inactive)
same,EC50,[6],> 32 µM (inactive)
same,IC50,Cannabinoid receptor 2 [7],> 32 µM (inactive)
same,EC50,Cannabinoid receptor 1 [8],> 32 µM (inactive)
same,IC50,[9],> 32 µM (inactive)
same,IC50,[10],0.342 µM (active)
same,IC50,Cannabinoid receptor 1 [11],3.17 µM (active)
same,IC50,[12],0.527 µM (active)
same,IC50,Cannabinoid receptor 2 [13],> 32 µM (inactive)
same,EC50,Cannabinoid receptor 2 [14],> 32 µM (inactive)
same,EC50,Cannabinoid receptor 2 [15],28.2 µM (inactive)
same,AC50,INS1,6.56 µM (active)
same,AC50,[16],2.33 µM (active)
same,AC50,[17],50.5 µM (active)
same,AC50,[18],4.08 µM (active)
O=C(CN1C(=O)S/C(=C\c2ccccc2)C1=O)NNC(=O)c1ccccc1O,IC50,SUMO-activating enzyme,38.2 µM (active)
same,IC50,Exodeoxyribonuclease V,> 119 µM (inactive)
same,IC50,[19],> 119 µM (inactive)
same,IC50,Albumin,> 94.1 µM (inactive)
CN[C@@H](C)C(=O)NC1CCCN([C@@H](C)C(=O)NC2CCc3ccccc3C2)C1=O (stereo not given in full),IC50,[20],> 100 µM (inactive)
same,IC50,[21],> 100 µM (inactive)
